Data: ChEMBL document CHEMBL1128811, “Isolation and structure of the exceptional Pterobranchia human cancer inhibitors cephalostatins 16 and 171” (1995)

Legend:
Assay type in all cases: functional
[1] = system: Tumor Cell line; experiment: In vitro cytotoxic potency against 60 human tumor cell lines at 10e-7 M concentration
[2] = system: Tumor Cell line; experiment: In vitro cytotoxic potency against 60 human tumor cell lines at 10e-8 M concentration
[3] = system: P388; experiment: Effective dose against P388 cell line […]; conditions: Mus musculus, read-out: ED50 (the source's name)

EC50 [3] [ng/mL] | SMILES | GI50 [1] [nM] | GI50 [2] [nM]
 | C[C@@H]1[C@]2(O[C@H]3C=C4[C@@H]5CC[C@H]6Cc7nc8c(nc7C[C@]6(C)[C@H]5C[C@@H](O)[C@]4(C)[C@]31O)C[C@@H]1CC[C@H]3C4=CC[C@@H]5[C@H](C)[C@@]6(OC[C@]45C(=O)C[C@@H]3[C@@]1(C)C8)OC(C)(C)C[C@H]6O)O[C@](C)(CO)C[C@H]2O [CEPHALOSTATIN 1] | ~1 | 
< 1 | C[C@@H]1[C@H]2CC=C3[C@@H]4CC[C@H]5Cc6nc7c(nc6C[C@]5(C)[C@@]4(O)CC(=O)[C@@]32CO[C@]12OC(C)(C)C[C@H]2O)C[C@@H]1CC[C@H]2C3=C[C@@H]4O[C@@]5(CC[C@](C)(O)CO5)[C@@H](C)[C@]4(O)[C@@]3(C)[C@H](O)C[C@@H]2[C@@]1(C)C7 [CEPHALOSTATIN 16] |  | ~1
